{"source": "patent US20060019951A1", "about": "“Vacuolins” (CBR Institute for Biomedical Research, priority 2002, published 2006)", "tested_on": "vacuole formation in cells exposed to a vacuolin", "assay": "Conditions under which vacuole formation is blocked in cells exposed to a vacuolin", "assay_type": "cell-based", "conditions": "FIGS. 8-10", "source_text": "Additional studies were directed at identifying conditions under which vacuole formation is blocked (see, for example, FIGS. 8-10). […] It is likely that the intravacuolar pH is higher than the low pH of lysosomes; the vacuoles are likely to accumulate Cl ions (see, for example, FIG. 11).", "data": [{"smiles": "CO/C1=C\\C(C)=C\\[C@@H](C)[C@@H](O)[C@@H](C)C/C(C)=C/C=C/[C@H](OC)[C@@H]([C@@H](C)[C@@H](O)[C@H](C)[C@@]2(O)C[C@@H](O)[C@H](C)[C@@H](C(C)C)O2)OC1=O", "note": "[bafilomycin A]", "values": [{"measurement": "effect on vacuole formation in cells exposed to a vacuolin", "result": "inhibited"}]}]}
